Results reported in ChEMBL document CHEMBL1144622, “Novel malonamide derivatives as potent kappa opioid receptor agonists” (Bioorg Med Chem Lett, 2007).

Columns and labels:
[1] = target: Opioid receptors; delta & kappa (Homo sapiens) (UniProt P41145+P41143); test: Selectivity for human kappa opioid receptor over human delta opioid receptor; assay type: functional
Cytochrome P450 2D6 = Cytochrome P450 2D6 (Homo sapiens, UniProt P10635); test: Inhibition of CYP2D6; assay type: ADME
[2] = target: Kappa-type opioid receptor (Homo sapiens, UniProt P41145); test: Agonist activity at human kappa opioid receptor by [35S]GTP-gamma-S binding assay; assay type: functional
Kappa-type opioid receptor, sequence (P41145 whole entry): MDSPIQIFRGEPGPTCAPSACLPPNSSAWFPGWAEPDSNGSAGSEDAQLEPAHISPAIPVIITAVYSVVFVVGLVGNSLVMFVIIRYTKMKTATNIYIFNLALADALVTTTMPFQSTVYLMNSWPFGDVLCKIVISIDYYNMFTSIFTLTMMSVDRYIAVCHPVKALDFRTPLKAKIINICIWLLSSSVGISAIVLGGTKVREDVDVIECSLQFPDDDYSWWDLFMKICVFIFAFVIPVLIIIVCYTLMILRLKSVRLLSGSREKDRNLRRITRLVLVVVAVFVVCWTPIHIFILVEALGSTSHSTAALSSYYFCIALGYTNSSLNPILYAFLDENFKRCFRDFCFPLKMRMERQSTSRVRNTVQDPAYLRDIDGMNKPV

[3] = target: Opioid receptors; mu & kappa (Homo sapiens) (UniProt P41145+P35372); test: Selectivity for human kappa opioid receptor over human mu opioid receptor; assay type: functional
Opioid receptors; mu & kappa (Homo sapiens), sequence (P35372 whole entry, looked up): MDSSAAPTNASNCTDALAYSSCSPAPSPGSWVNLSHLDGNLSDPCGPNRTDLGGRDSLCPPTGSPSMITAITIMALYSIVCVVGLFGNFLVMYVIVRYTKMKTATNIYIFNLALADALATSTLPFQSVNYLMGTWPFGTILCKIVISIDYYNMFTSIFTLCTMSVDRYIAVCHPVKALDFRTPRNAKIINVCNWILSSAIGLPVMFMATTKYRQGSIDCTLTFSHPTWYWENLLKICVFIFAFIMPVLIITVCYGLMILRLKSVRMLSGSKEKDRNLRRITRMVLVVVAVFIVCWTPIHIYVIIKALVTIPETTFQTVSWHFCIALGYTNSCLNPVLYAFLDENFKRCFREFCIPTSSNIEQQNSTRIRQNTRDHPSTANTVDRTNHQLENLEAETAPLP
Opioid receptors; mu & kappa (Homo sapiens), sequence (P41145 whole entry, looked up): as the sequence (P41145 whole entry) above

Rattus norvegicus = test: Antinociceptive activity in rat at 300 ug, sc by formalin-induced flinching assay; assay type: functional
Mus musculus = test: Analgesic activity in sc dosed mouse assessed as inhibition of acetic acid-induced writhing; assay type: functional

Cytochrome P450 2D6, sequence (P10635 whole entry): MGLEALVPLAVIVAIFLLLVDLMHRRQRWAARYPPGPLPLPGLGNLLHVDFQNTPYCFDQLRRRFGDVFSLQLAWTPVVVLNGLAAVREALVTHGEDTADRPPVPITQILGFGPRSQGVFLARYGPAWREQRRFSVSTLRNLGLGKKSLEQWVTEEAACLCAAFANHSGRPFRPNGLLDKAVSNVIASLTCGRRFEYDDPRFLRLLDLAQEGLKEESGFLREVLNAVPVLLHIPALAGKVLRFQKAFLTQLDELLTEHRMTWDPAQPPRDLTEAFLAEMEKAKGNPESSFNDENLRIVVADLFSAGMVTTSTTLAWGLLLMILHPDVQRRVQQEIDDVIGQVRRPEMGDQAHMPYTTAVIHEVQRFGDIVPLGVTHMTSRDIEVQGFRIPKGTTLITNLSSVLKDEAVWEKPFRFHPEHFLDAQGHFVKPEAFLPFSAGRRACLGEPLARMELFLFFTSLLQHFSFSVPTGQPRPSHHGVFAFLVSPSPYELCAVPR
Opioid receptors; delta & kappa (Homo sapiens), sequence (P41143 whole entry, looked up): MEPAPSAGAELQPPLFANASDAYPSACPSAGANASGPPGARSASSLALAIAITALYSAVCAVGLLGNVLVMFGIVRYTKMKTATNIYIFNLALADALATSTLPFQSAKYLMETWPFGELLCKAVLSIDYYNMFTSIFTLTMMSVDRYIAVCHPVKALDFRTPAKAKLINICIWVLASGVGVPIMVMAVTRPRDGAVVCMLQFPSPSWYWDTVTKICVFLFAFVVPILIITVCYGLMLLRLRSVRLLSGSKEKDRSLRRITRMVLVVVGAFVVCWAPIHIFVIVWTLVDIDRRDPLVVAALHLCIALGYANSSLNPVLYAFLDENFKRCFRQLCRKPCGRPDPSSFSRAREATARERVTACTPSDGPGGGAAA
Opioid receptors; delta & kappa (Homo sapiens), sequence (P41145 whole entry, looked up): as the sequence (P41145 whole entry) above

Row | Compound | Ratio Ki [1] | IC50 (Cytochrome P450 2D6) [nM] | Ki [2] [nM] | Ratio Ki [3] | Activity (Rattus norvegicus) [%] | ED50 (Mus musculus) [mg/kg]
1 | CN(C(=O)CC(=O)NCc1ccccc1)[C@H](CN1CC[C@H](O)C1)c1ccccc1 | 40 | 3200 | 15 | 120 |  | 
2 | CN(C(=O)CCC(=O)Nc1ccccc1)[C@H](CN1CC[C@H](O)C1)c1ccccc1 | 220 | 8600 | 6 |  |  | 
3 | CN(C(=O)CCC(=O)Nc1cccnc1)[C@H](CN1CC[C@H](O)C1)c1ccccc1 | 5 | > 10000 | 280 |  |  | 
4 | CN(C(=O)NCC(=O)Nc1ccccc1)[C@H](CN1CC[C@H](O)C1)c1ccccc1 | 8.7 | 5100 | 6.5 | 110 |  | 
5 | CN(C(=O)CCC(=O)Nc1nccs1)[C@H](CN1CC[C@H](O)C1)c1ccccc1 | 14 | 3400 | 23 |  |  | 
6 | CN(C(=O)CC(=O)Nc1nccs1)[C@H](CN1CC[C@H](O)C1)c1ccccc1 | 71 | 700 | 0.53 | 180 |  | 
7 | CN(C(=O)CC(=O)Nc1ccc(NS(C)(=O)=O)cc1)[C@H](CN1CC[C@H](O)C1)c1ccccc1 | 39 | 10000 | 29 | 4.8 |  | 
8 | CN(C(=O)CC(=O)Nc1ccc(CNS(C)(=O)=O)cc1)[C@H](CN1CC[C@H](O)C1)c1ccccc1 | 10 | 5400 | 96 | 4.3 |  | 
9 | CN(C(=O)CC(=O)Nc1cccnc1)[C@H](CN1CC[C@H](O)C1)c1ccccc1 | 15 | > 10000 | 1.3 | 450 |  | 
10 | CN(C(=O)CC(=O)Nc1ccccc1)[C@H](CN1CC[C@H](O)C1)c1ccccc1 | 25 | 5300 | 0.27 | 120 | 93 | 0.03
